The values below are quoted from earlier work in patent US20090074668A1, “Vldlr-/- mouse models and related methods” (priority 2007, published 2009).

Structures are written as SMILES.

The data set has as its system VEGF. To be noted: intraocular administration; in vitro and in vivo.

Turning to `CC1(C)O[C@@H]2C[C@H]3[C@@H]4CCC5=CC(=O)C=C[C@]5(C)[C@@]4(F)[C@@H](O)C[C@]3(C)[C@]2(C(=O)CO)O1` [Kenalog], the “effect on VEGF levels” value is listed as “reduce VEGF levels”.
